Series [1] in a line: DSC of thermal behaviour of nanoparticles. Format: physicochemical.
The nature of series [2]: Curcumin release in simulated gastric fluid (SGF). Format: physicochemical. The note with it: pH 2.0, pepsin, 37℃, 100 rpm, sampling to 90 min.

Regarding `COc1cc(/C=C/C(=O)CC(=O)/C=C/c2ccc(O)c(OC)c2)ccc1O` [Cur, 姜黄素], the “characteristic decomposition peak of curcumin” value in series [1] stood at 179.2 °C. This compound yielded a curcumin release rate in series [2] of 60.5%.
